Measurements as given in patent US10828349B2, “Treatment of microbial infections” (NATIONAL UNIVERSITY OF IRELAND, GALWAY, priority 2011, dated 2020).

Assays:
R468/2012 9027 = test: antibiotic susceptibility of strain; type: cell-based, P. aeruginosa; set-up: key: ‘S’ denotes sensitive; ‘R’ denotes resistant or increased tolerance; settings: R468/2012 9027, cystic fibrosis sputum isolate
Method: (§1) The susceptibility of a number of P. aeruginosa strains to the KI-Dose-150 composition was tested using the method described in Example 1. […] The relative susceptibilities are described in Table 4.

R550/2012 9026 = test: antibiotic susceptibility of strain; type: cell-based, P. aeruginosa; set-up: key: ‘S’ denotes sensitive; ‘R’ denotes resistant or increased tolerance; settings: R550/2012 9026, cystic fibrosis sputum isolate
Method: as §1

R480/2012 9029 = test: antibiotic susceptibility of strain; type: cell-based, P. aeruginosa; set-up: key: ‘S’ denotes sensitive; ‘R’ denotes resistant or increased tolerance; settings: R480/2012 9029, cystic fibrosis sputum isolate
Method: as §1

R479/2012 9028 = test: antibiotic susceptibility of strain; type: cell-based, P. aeruginosa; set-up: key: ‘S’ denotes sensitive; ‘R’ denotes resistant or increased tolerance; settings: R479/2012 9028, cystic fibrosis sputum isolate
Method: as §1

P. aeruginosa D12 = test: antibiotic susceptibility of strain; type: cell-based; set-up: key: ‘S’ denotes sensitive; ‘R’ denotes resistant or increased tolerance
Method: as §1

E. coli [1] = settings: constant substrate and LP; glucose/glucose oxidase doubly diluted; Mueller Hinton broth
Method: (§2) Secondly, an assay where the concentration of substrates was maintained constant, and the H2O2 levels were varied was employed.
This was aliquoted (150 μl) to a 96 well plate.

E. coli [2] = settings: constant H2O2 (glucose oxidase) and LP; substrate 40 mg/ml doubly diluted; Mueller Hinton broth
Method: as §2
This was aliquoted (150 μl) to rows of a 96-well plate. […] The samples were doubly diluted as far as well 11, leaving well 12 as a control. The plate was incubated overnight at 37° C., and the optical density measured throughout.

bacterial cells [3] = test: lower limits of components of the enzymatic system, LB broth; type: cell-based; settings: for level of required substrate: glucose and glucose oxidase levels sufficient
Method: The lower limits of each of the components in an enzymatic system, required to produce inhibitory biocidal concentrations of the antimicrobial agents, were determined (for example Table 1 and Table 5). To establish these lower limits for each component, minimum inhibitory concentrations for each were calculated using doubling dilutions on a 96-well plate, in a manner similar to that described in Example 1, wherein the concentration of the component of choice is lowered until no effect on growth is noted. […] At levels below this, there was insufficient reactive oxygen species produced to result in effective bactericidal activity. The level of LP required for a reaction to produce the reactive oxygen species at the required concentrations was determined at 0.15 unit activity/ml (1 mM KI present). […] This embodiment of the invention suitable for the therapeutic treatment of mastitis also included beta-galactosidase to convert the lactose present in milk to glucose.

[4] = test system: Staphycoccus epidermidis central venous catheter-related biofilm; settings: cited from earlier work; for result relative to gentamycin and vancomycin: biofilm lock therapy model; for duration of treatment after which biofilm cells were still recoverable: 10 g/L antibiotic
E. coli [5] = settings: catalase treated
Method: The antimicrobial properties of these compositions were tested using a doubling dilution 96-well plate growth assay-based method. An aliquot of the composition was added to 150 μl growth medium (with 1-2% glucose present) containing 10^7-8 bacterial cells, and brought to a final volume of 300 μl. The composition concentration was doubly diluted by the removal of 150 μl of the mixture and transfer to the next well containing 150 μl of identical growth medium, lacking the ROS producing components. The optical density of the medium was measured for 24 hours at 595 nm. […] Controls included wells to which none of the composition was supplemented, or wherein, one of the components was removed from the composition.
A further example of a pre-activated system was employed as follows: solutions (4 ml volumes) containing 0.85 M H2O2 plus none or 2.5 M NaCl/5 μl chloroperoxidase (˜10,000 Units/ml) were allowed incubate. The solutions were then split and either catalase treated (50 μl of a 4 mg/ml, >1,000 units/mg) or were not catalase treated. The relative antimicrobial properties of the solutions were then tested using the protocol as described in Example 1 using E. coli supplemented broth.

bacterial cells [6] = test: potency in broth growth medium containing catalase; type: cell-based; settings: hydrogen peroxide 0.85 M only
Method: This embodiment is referred to as ‘KI-Dose-150’.
The potency of the doses was not reversed. A 1:1024 dilution of the doses was inhibitory in the absence of catalase, and a 1:512 dilution of the doses was inhibitory in the presence of catalase.
As a comparison, the test was performed using only hydrogen peroxide (0.85 M), both in the presence and absence of catalase.

E. coli ATCC 25922 = test: hydrogen peroxide source growth inhibition assay with or without LP and KI; type: cell-based
Method: Aliquots (20 ml) of nutrient broth were inoculated with 10^8 cells of E. coli ATCC 25922, and 150 μl of the inoculated broth were added to wells in a 96 well growth plate. This was repeated with the inoculated broth being further supplemented with LP (37.5 μl of a 4 mg/ml solution) and KI (75 μl of a 40 mg/ml solution) to the medium.
Sources of hydrogen peroxide were added (150 μl) to well 1 and doubly diluted to well 11, but not to well 12, which acted as a control.

E. coli [7] = test: milk inoculated with E. coli, enzymatic system with Beta-galactosidase; type: cell-based; settings: component of the four-component system in milk inoculated with E. coli
[8] = effect of milk pasteurisation heating on the enzymatic components; type: physicochemical; settings: held 15-600 seconds; activity read by E. coli total viable counts in milk after 24 hrs at 37° C.
Method: An attempt was made to determine the effects of the milk pasteurisation process on the enzymatic components, which can be used to produce the reactive oxygen species of the composition of the present invention. Working concentrations of the enzymes were heated in 50 μl volumes to 72° C. and held for 15, 30, 60, 300 or 600 seconds.
Appropriate concentrations of these aliquots were then transferred to milk containing the necessary components of the system and ˜10^8 cells/ml E. coli. Total viable counts were performed after 24 hrs incubation at 37° C. This allowed the determination of whether the enzymes were still active after heating.

[9] = nutrient broth supplemented with KI and LP

With `NCC[C@H](O)C(=O)N[C@@H]1C[C@H](N)[C@@H](O[C@H]2O[C@H](CN)[C@@H](O)[C@H](O)[C@H]2O)[C@H](O)[C@H]1O[C@H]1O[C@H](CO)[C@@H](O)[C@H](N)[C@H]1O` [Amikacin] the “susceptibility of the strain to the antibiotic” value (“susceptibility of the strain” for short) (R468/2012 9027) was “R”, the “susceptibility of the strain” value (R550/2012 9026) was “R” and the “susceptibility of the strain” value (R480/2012 9029) was “R”. The “susceptibility of the strain” value (R479/2012 9028) was “R”.
For `O=C(O)c1cn(C2CC2)c2cc(N3CCNCC3)c(F)cc2c1=O` [Ciprofloxacin], the “susceptibility of the strain” value (P. aeruginosa D12) was “R”, the “susceptibility of the strain” value (R550/2012 9026) was “R” and the “susceptibility of the strain” value (R480/2012 9029) was “R”.
In the case of `[I-].[K+]` [Iodide, potassium iodide], the “number of dilutions of the H2O2 producing sample with inhibition” value (E. coli [1]) is reported as “six”, the “last doubling dilution with substrate level sufficient for complete inhibition” value (E. coli [2]) is reported as 8 and the “level of required substrate” value (bacterial cells [3]) is reported as “approximately 0.5 mM”.
For `N#C[S-].[K+]` [Thiocyanate, potassium thiocyanate], the “number of dilutions of the H2O2 producing sample with inhibition” value (E. coli [1]) was “two”, the “last doubling dilution with substrate level sufficient for complete inhibition” value (E. coli [2]) was 9 and the “level of required substrate” value (bacterial cells [3]) was “approximately 0.5 mM”.
In the case of `NC[C@H]1O[C@H](O[C@H]2[C@H](O)[C@@H](O[C@H]3O[C@H](CO)[C@@H](O)[C@H](N)[C@H]3O)[C@H](N)C[C@@H]2N)[C@H](N)C[C@@H]1O` [Tobramycin], the “susceptibility of the strain” value (R550/2012 9026) is reported as “R” and the “susceptibility of the strain” value (R479/2012 9028) is reported as “R”.
In the case of `CC(=O)NC[C@H]1CN(c2ccc(N3CCN(C(=O)CO)CC3)c(F)c2)C(=O)O1` [eperezolid], the “result relative to gentamycin and vancomycin” value [4] is given as “better results”.
In the case of `OO` [hydrogen peroxide], the “dilutions at which inhibition of the bacteria was noted” value (E. coli [5]) is reported as “no inhibition”, the “effect of catalase on the inhibitory nature” value (bacterial cells [6]) is reported as “completely reverse the inhibitory nature” and the “greatest dilution of the hydrogen peroxide source inhibitory to E. coli” value (E. coli ATCC 25922; [9]) is reported as 1:32 dilution still not inhibitory.
For `CC(=O)NC[C@H]1CN(c2ccc(N3CCOCC3)c(F)c2)C(=O)O1` [linezolid], the “result relative to gentamycin and vancomycin” value [4] is given as “better results”.
For `O=C([O-])[O-].O=C([O-])[O-].OO.OO.OO.[Na+].[Na+].[Na+].[Na+]` [sodium percarbonate solution, sodium percarbonate], the “greatest dilution of the hydrogen peroxide source inhibitory to E. coli” value (E. coli ATCC 25922; [9]) was “no difference as regards inhibition” and the “greatest dilution of the hydrogen peroxide source inhibitory to E. coli” value (E. coli ATCC 25922; nutrient broth without supplemented KI and LP) was “identical to that observed following direct H2O2 addition”.
In the case of `CN[C@H](CC(C)C)C(=O)N[C@H]1C(=O)N[C@@H](CC(N)=O)C(=O)N[C@H]2C(=O)N[C@H]3C(=O)N[C@H](C(=O)N[C@H](C(=O)O)c4cc(O)cc(O)c4-c4cc3ccc4O)[C@H](O)c3ccc(c(Cl)c3)Oc3cc2cc(c3O[C@@H]2O[C@H](CO)[C@@H](O)[C@H](O)[C@H]2O[C@H]2C[C@](C)(N)[C@H](O)[C@H](C)O2)Oc2ccc(cc2Cl)[C@H]1O` [vancomycin], the “duration of treatment after which biofilm cells were still recoverable” value [4] is given as 7 days.
For Gentamicin, the “susceptibility of the strain” value (R550/2012 9026) was “R”, the “susceptibility of the strain” value (R480/2012 9029) was “R” and the “susceptibility of the strain” value (R479/2012 9028) was “R”. For the same compound, the “duration of treatment after which biofilm cells were still recoverable” value [4] was 10 days.
For Glucose oxidase, the “concentration sufficient to observe antibacterial activity” value (E. coli [7]) was no less than 3.75 mg/L, the “glucose oxidase level required” value (bacterial cells [3]; 0.5% glucose) was 2 units/ml and the “glucose oxidase level required” value (bacterial cells [3]; 1% glucose) was 1 units/ml. For the same compound, the “glucose oxidase level required” value (bacterial cells [3]; LB broth, 2% glucose, 120 mg/L KI, 320 units LP) was “at least 0.5 unit glucose oxidase/ml”.
For lactoperoxidase, the “concentration sufficient to observe antibacterial activity” value (E. coli [7]) was no less than 12 mg/L, the “enzyme activity after heating to 72° C.” value [8] was “demonstrated activity after 300 seconds heating” and the “level of LP required” value (bacterial cells [3]; 1 mM KI present) was 0.15 unit activity/ml.
